Data published in US9694016B2 (Novartis AG, priority 2013, dated 2017).

Target: b-Raf (V600E) (Homo sapiens (Human), UniProt P15056, V600E)
Conditions: read-out: b-Raf IC-50; AlphaScreen, 60 min pre-incubation, 3 hours reaction

Sequence of b-Raf (V600E) (P15056 whole entry V600E): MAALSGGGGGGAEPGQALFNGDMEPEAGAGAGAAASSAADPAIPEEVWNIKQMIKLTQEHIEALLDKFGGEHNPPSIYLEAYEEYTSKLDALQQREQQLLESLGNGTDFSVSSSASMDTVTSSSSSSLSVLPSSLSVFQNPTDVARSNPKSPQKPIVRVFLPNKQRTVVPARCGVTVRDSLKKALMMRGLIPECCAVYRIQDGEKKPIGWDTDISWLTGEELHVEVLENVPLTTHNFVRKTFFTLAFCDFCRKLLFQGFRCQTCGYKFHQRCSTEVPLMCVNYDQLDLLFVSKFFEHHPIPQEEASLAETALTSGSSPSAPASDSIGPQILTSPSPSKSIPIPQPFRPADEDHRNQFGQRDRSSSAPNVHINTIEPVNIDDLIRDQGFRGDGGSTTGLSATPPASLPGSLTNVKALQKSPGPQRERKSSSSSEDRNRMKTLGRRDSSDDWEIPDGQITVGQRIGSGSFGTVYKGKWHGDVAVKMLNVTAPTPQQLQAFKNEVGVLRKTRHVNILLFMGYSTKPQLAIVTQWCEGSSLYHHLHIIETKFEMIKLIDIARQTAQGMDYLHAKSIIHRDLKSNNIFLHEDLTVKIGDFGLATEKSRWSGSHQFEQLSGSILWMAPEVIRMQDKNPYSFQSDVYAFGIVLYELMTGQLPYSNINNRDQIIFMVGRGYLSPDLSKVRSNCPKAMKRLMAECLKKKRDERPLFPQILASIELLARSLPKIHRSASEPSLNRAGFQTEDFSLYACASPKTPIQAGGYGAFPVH

| Structure (SMILES) | IC50 |
| --- | --- |
| Cc1ncc(NC(=O)c2cccc(C(C)(C)S(C)(=O)=O)c2)cc1-c1cc(N2CCOCC2)n(C)c(=O)c1 [Example 512, N-(1′,2-dimethyl-6′-morpholino-2′-oxo-1′,2′-dihydro-[3,4′-bipyridin]-5-yl)-3-(2-(methylsulfonyl)propan-2-yl)benzamide] | 59.8 nM |
| Cc1ccc(NC(=O)c2ccnc(C(C)(F)F)c2)cc1-c1cc(N2CCOC[C@H]2C)c(=O)n(C)n1 [Example 674, (R)-2-(1,1-difluoroethyl)-N-(4-methyl-3-(1-methyl-5-(3-methylmorpholino)-6-oxo-1,6-dihydropyridazin-3-yl)phenyl)isonicotinamide] | 3.7 nM |
| Cc1ccc(NC(=O)c2ccnc(C(F)F)c2)cc1-c1cc(N2CCOCC2)n(C)c(=O)c1 [Example 486, 2-(difluoromethyl)-N-(4-methyl-3-(1-methyl-6-morpholino-2-oxo-1,2-dihydropyridin-4-yl)phenyl)isonicotinamide] | 1.1 nM |
| Cc1ncc(NC(=O)c2ccnc(C(C)(C)C#N)c2)cc1-c1cc(N2CCOCC2)nc(NC[C@H](C)O)n1 [Example 738, (S)-2-(2-cyanopropan-2-yl)-N-(5-(2-((2-hydroxypropyl)amino)-6-morpholinopyrimidin-4-yl)-6-methylpyridin-3-yl)isonicotinamide] | 33.2 nM |
| Cc1ccc(NC(=O)c2ccnc(C(C)(C)C#N)c2)cc1-c1cc(C2CCOCC2)c(=O)n(C)n1 [Example 675, 2-(2-cyanopropan-2-yl)-N-(4-methyl-3-(1-methyl-6-oxo-5-(tetrahydro-2H-pyran-4-yl)-1,6-dihydropyridazin-3-yl)phenyl)isonicotinamide] | 4.9 nM |
| CCOc1nnc(-c2cc(NC(=O)c3cnnc(C(F)(F)F)c3)cnc2C)cc1N1CCOCC1 [Example 614, N-(5-(6-ethoxy-5-morpholinopyridazin-3-yl)-6-methylpyridin-3-yl)-6-(trifluoromethyl)pyridazine-4-carboxamide] | 4.2 nM |

Further lines, results first:

| IC50 | Structure (SMILES) |
| --- | --- |
| 1.6 nM | CCOc1nnc(-c2cc(NC(=O)c3ccnc(C(F)(F)F)c3)cnc2C)cc1N1CCOCC1 [Example 616, N-(5-(6-ethoxy-5-morpholinopyridazin-3-yl)-6-methylpyridin-3-yl)-2-(trifluoromethyl)isonicotinamide] |
| 3.5 nM | Cc1ncc(NC(=O)c2ccnc(C(C)(C)F)c2)cc1-c1cc(N2CCOCC2)n2nccc2n1 [Example 790, 2-(2-fluoropropan-2-yl)-N-(6-methyl-5-(7-morpholinopyrazolo[1,5-a]pyrimidin-5-yl)pyridin-3-yl)isonicotinamide] |
| 2.3 nM | COc1nnc(-c2cc(NC(=O)c3cccc(C(F)F)c3)cnc2C)cc1N1CCOCC1 [Example 604, 3-(difluoromethyl)-N-(5-(6-methoxy-5-morpholinopyridazin-3-yl)-6-methylpyridin-3-yl)benzamide] |
| 2.8 nM | CCOc1nnc(-c2cc(NC(=O)c3ccnc(C(C)(C)O)c3)ccc2C)cc1N1CCOCC1 [Example 569, N-(3-(6-ethoxy-5-morpholinopyridazin-3-yl)-4-methylphenyl)-2-(2-hydroxypropan-2-yl)isonicotinamide] |
| 5 nM | CCOc1nnc(-c2cc(NC(=O)c3cccc(S(C)(=O)=O)c3)cnc2C)cc1N1CCOCC1 [Example 618, N-(5-(6-ethoxy-5-morpholinopyridazin-3-yl)-6-methylpyridin-3-yl)-3-(methylsulfonyl)benzamide] |
| 17.1 nM | Cc1ncc(NC(=O)c2ccnc(C(C)(C)O)c2)cc1-c1cc(N2CCOCC2)c(OC2CCOCC2)nn1 [Example 634, 2-(2-hydroxypropan-2-yl)-N-(6-methyl-5-(5-morpholino-6-((tetrahydro-2H-pyran-4-yl)oxy)pyridazin-3-yl)pyridin-3-yl)isonicotinamide] |

Same assay, conditions: read-out: b-Raf IC-50; AlphaScreen, 60 min pre-incubation, reaction 3 hours at room temperature

| Structure (SMILES) | IC50 |
| --- | --- |
| Cc1ccc(NC(=O)c2ccnc(C(C)(F)F)c2)cc1-c1cc(N2CCOCC2)nc(N2CC(O)C2)c1 [Example 1078, 2-(1,1-difluoroethyl)-N-(3-(2-(3-hydroxyazetidin-1-yl)-6-morpholinopyridin-4-yl)-4-methylphenyl)isonicotinamide] | 0.67 nM |
| Cc1ncc(NC(=O)c2cccc(C(F)(F)F)c2)cc1-c1cc(N2CCNCC2)nc(N2CCOCC2)c1 [Example 1129, N-(2-methyl-2′-morpholino-6′-(piperazin-1-yl)-[3,4′-bipyridin]-5-yl)-3-(trifluoromethyl)benzamide] | 4.64 nM |
| Cc1ccc(NC(=O)c2cnnc(C(F)(F)F)c2)cc1-c1c(F)c(NCCO)nc(N2CCOCC2)c1F [Example 1015, N-(3-(3,5-difluoro-2-((2-hydroxyethyl)amino)-6-morpholinopyridin-4-yl)-4-methylphenyl)-6-(trifluoromethyl)pyridazine-4-carboxamide] | 29.5 nM |
| Cc1ccc(NC(=O)c2cccc(C(F)(F)F)c2)cc1-c1cc(NCC(C)(C)O)nc(N2CCOCC2)c1 [Example 1062, N-(3-(2-((2-hydroxy-2-methylpropyl)amino)-6-morpholinopyridin-4-yl)-4-methylphenyl)-3-(trifluoromethyl)benzamide] | 0.98 nM |
| Cc1ccc(NC(=O)c2cccc(C(F)F)c2)cc1-c1cc(NCCO)nc(N2CCOCC2)c1 [Example 1036, 3-(difluoromethyl)-N-(3-(2-((2-hydroxyethyl)amino)-6-morpholinopyridin-4-yl)-4-methylphenyl)benzamide] | 0.54 nM |
| Cc1ccc(NC(=O)c2ccnc(C3(C#N)CC3)c2)cc1-c1cc(NCCO)nc(N2CCOCC2)c1 [Example 1050, 2-(1-cyanocyclopropyl)-N-(3-(2-((2-hydroxyethyl)amino)-6-morpholinopyridin-4-yl)-4-methylphenyl)isonicotinamide] | 1.31 nM |
| Cc1ccc(NC(=O)c2cccc(C(F)F)c2)cc1-c1nc2c(c(N3CCOCC3)n1)S(=O)(=O)CC2 [Example 854, 3-(difluoromethyl)-N-(4-methyl-3-(4-morpholino-5,5-dioxido-6,7-dihydrothieno[3,2-d]pyrimidin-2-yl)phenyl)benzamide] | 0.8 nM |
| Cc1ccc(NC(=O)c2cccc(C(F)(F)F)c2)cc1-c1cc(N2CCOCC2)nc(N2CC[C@@H](O)C2=O)c1 [Example 1065, (R)—N-(3-(2-(3-hydroxy-2-oxopyrrolidin-1-yl)-6-morpholinopyridin-4-yl)-4-methylphenyl)-3-(trifluoromethyl)benzamide] | 0.53 nM |

Next, values leading:

| IC50 | Structure (SMILES) |
| --- | --- |
| 4.64 nM | Cc1ncc(NC(=O)c2cccc(C(F)F)c2)cc1-c1cc(N2CCOCC2)nc(N2CC(O)C2)c1 [Example 1079, 3-(difluoromethyl)-N-(2′-(3-hydroxyazetidin-1-yl)-2-methyl-6′-morpholino-[3,4′-bipyridin]-5-yl)benzamide] |
| 8.31 nM | CCOc1cc(-c2cc(NC(=O)c3ccnc(C(C)(C)C#N)c3)cnc2C)cc(N2CCOCC2)n1 [Example 1147, 2-(2-cyanopropan-2-yl)-N-(2′-ethoxy-2-methyl-6′-morpholino-[3,4′-bipyridin]-5-yl)isonicotinamide] |
| 10.8 nM | Cc1ncc(NC(=O)c2ccnc(C(C)(C)C#N)c2)cc1-c1cc(N2CCOCC2)nc(N2CCOCC2)c1 [Example 1123, 2-(2-cyanopropan-2-yl)-N-(2-methyl-2′,6′-dimorpholino-[3,4′-bipyridin]-5-yl)isonicotinamide] |
| 2.28 nM | Cc1ncc(NC(=O)c2ccnc(C3CC3)c2)cc1-c1cnc(OC2CCOCC2)c(N2CCOCC2)c1 [Example 941, 2-cyclopropyl-N-(2-methyl-5′-morpholino-6′-((tetrahydro-2H-pyran-4-yl)oxy)-[3,3′-bipyridin]-5-yl)isonicotinamide] |
| 5.03 nM | Cc1ncc(NC(=O)c2ccnc(C(C)C)c2)cc1-c1ccnc(N2CCOCC2)c1 [Example 1136, 2-isopropyl-N-(2-methyl-2′-morpholino-[3,4′-bipyridin]-5-yl)isonicotinamide] |
| 3.18 nM | CCOc1cc(-c2cc(NC(=O)c3ccnc(C(C)(C)F)c3)cnc2C)cc(N2CCOCC2)n1 [Example 1142, N-(2′-ethoxy-2-methyl-6′-morpholino-[3,4′-bipyridin]-5-yl)-2-(2-fluoropropan-2-yl)isonicotinamide] |

Same assay, conditions: read-out: b-Raf IC-50; Table 2; AlphaScreen, 3 hours reaction

| Structure (SMILES) | IC50 |
| --- | --- |
| Cc1ccc(C(=O)Nc2ccccn2)cc1-c1cc(N2CCOCC2)c(=O)n(C)c1 [Example 432, 4-methyl-3-(1-methyl-5-morpholino-6-oxo-1,6-dihydropyridin-3-yl)-N-(pyridin-2-yl)benzamide] | 99 nM |
| CCOc1ncc(-c2cc(NC(=O)c3cccc(S(C)(=O)=O)c3)ccc2C)cc1N1CCOCC1 [Example 229, N-(3-(6-ethoxy-5-morpholinopyridin-3-yl)-4-methylphenyl)-3-(methylsulfonyl)benzamide] | 0.7 nM |
| Cc1ccc(NC(=O)c2cccc(-c3nnco3)c2)cc1-c1cc(N2CCOCC2)c(=O)n(C)c1 [Example 349, N-(4-methyl-3-(1-methyl-5-morpholino-6-oxo-1,6-dihydropyridin-3-yl)phenyl)-3-(1,3,4-oxadiazol-2-yl)benzamide] | 6.2 nM |
| Cc1ccc(NC(=O)c2cccc(C(F)(F)F)c2)cc1-c1cc(N2CCOCC2)cnn1 [Example 59, N-(4-methyl-3-(5-morpholinopyridazin-3-yl)phenyl)-3-(trifluoromethyl)benzamide] | 2.8 nM |

Further lines, results first:

| IC50 | Structure (SMILES) |
| --- | --- |
| 0.8 nM | Cc1ccc(NC(=O)c2ccnc(S(C)(=O)=O)c2)cc1-c1cnc(OC2CCOCC2)c(N2CCOCC2)c1 [Example 274, N-(4-methyl-3-(5-morpholino-6-((tetrahydro-2H-pyran-4-yl)oxy)pyridin-3-yl)phenyl)-2-(methylsulfonyl)isonicotinamide] |
| 0.8 nM | Cc1ncc(NC(=O)c2cccc(C(F)(F)F)c2)cc1-c1cnc(OC2COC2)c(N2CCOCC2)c1 [Example 315] |
| 8.6 nM | COc1ncc(-c2cc(NC(=O)c3ccnc(C(C)(C)C#N)c3)cnc2Cl)cc1N1CCOCC1 [Example 264, N-(2-chloro-6′-methoxy-5′-morpholino-[3,3′-bipyridin]-5-yl)-2-(2-cyanopropan-2-yl)isonicotinamide] |
| 1.4 nM | CCOc1ncc(-c2cc(NC(=O)c3cccc(-c4nnco4)c3)ccc2C)cc1N1CCOCC1 [Example 230, N-(3-(6-ethoxy-5-morpholinopyridin-3-yl)-4-methylphenyl)-3-(1,3,4-oxadiazol-2-yl)benzamide] |
